Assay results as given in PubChem BioAssay AID256 (DTP/NCI, 2004).
Toxic doses and inconclusive results are not listed. How the source made its calls: active means survival T/C of 150% or more; inactive means T/C below 125% in these data.

System: CD2F1 mice, L1210 leukemia ip, survival T/C
Assay: NCI In Vivo Anticancer Drug Screen. Data for tumor model L1210 Leukemia (intraperitoneal) in CD2F1 (CDF1) mice
Conditions: higher = longer survival
Summary of the method: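 Mice carrying a transplanted tumor received test compound or vehicle alone. The value is the measurement in the treated group divided by that in the vehicle-treated control group.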

[1] = endpoint: mean survival time, dose: 100.0 mg/kg/injection, schedule: Q01DX009 (ip), vehicle: saline with Tween-80
[2] = endpoint: mean survival time, dose: 200.0 mg/kg/injection, schedule: Q01DX009 (ip), vehicle: saline with Tween-80
[3] = endpoint: mean survival time, dose: 400.0 mg/kg/injection, schedule: Q01DX009 (ip), vehicle: saline with Tween-80
[4] = endpoint: mean survival time, dose: 50.0 mg/kg/injection, schedule: Q01DX009 (ip), vehicle: saline with Tween-80
[5] = endpoint: mean survival time, dose: 100.0 mg/kg/injection, schedule: Q04DX003 (ip), vehicle: saline with Tween-80
[6] = endpoint: mean survival time, dose: 200.0 mg/kg/injection, schedule: Q04DX003 (ip), vehicle: saline with Tween-80
[7] = endpoint: mean survival time, dose: 400.0 mg/kg/injection, schedule: Q04DX003 (ip), vehicle: saline with Tween-80
[8] = endpoint: mean survival time, dose: 100.0 mg/kg/injection, schedule: Q01DX001 (ip), vehicle: saline
[9] = endpoint: mean survival time, dose: 200.0 mg/kg/injection, schedule: Q01DX001 (ip), vehicle: saline

Measured: T/C

OCC1OC(c2nnc3c4ccccc4cnn23)C(O)C1O (centres undefined)
inactive: endpoint: mean survival time, dose: 10.94 mg/kg/injection, schedule: Q01DX005 (ip), vehicle: water 100 % of control | endpoint: mean survival time, dose: 11.25 mg/kg/injection, schedule: Q01DX005 (ip), vehicle: water 96 % of control | endpoint: mean survival time, dose: 21.88 mg/kg/injection, schedule: Q01DX005 (ip), vehicle: water 94 % of control | endpoint: mean survival time, dose: 22.5 mg/kg/injection, schedule: Q01DX005 (ip), vehicle: water 94 % of control | endpoint: mean survival time, dose: 43.75 mg/kg/injection, schedule: Q01DX005 (ip), vehicle: water 93 % of control | endpoint: mean survival time, dose: 45.0 mg/kg/injection, schedule: Q01DX005 (ip), vehicle: water 90 % of control | endpoint: mean survival time, dose: 87.5 mg/kg/injection, schedule: Q01DX005 (ip), vehicle: water 94 % of control | endpoint: mean survival time, dose: 90.0 mg/kg/injection, schedule: Q01DX005 (ip), vehicle: water 96 % of control | endpoint: mean survival time, dose: 175.0 mg/kg/injection, schedule: Q01DX005 (ip), vehicle: water 93 % of control | endpoint: mean survival time, dose: 180.0 mg/kg/injection, schedule: Q01DX005 (ip), vehicle: water 94 % of control

c1cc2c(c(NC3=NCCCO3)c1)CCCC2
inactive: endpoint: mean survival time, dose: 12.5 mg/kg/injection, schedule: Q04DX003 (ip), vehicle: saline with Tween-80 97 % of control | endpoint: mean survival time, dose: 25.0 mg/kg/injection, schedule: Q04DX003 (ip), vehicle: saline with Tween-80 106 % of control | endpoint: mean survival time, dose: 50.0 mg/kg/injection, schedule: Q04DX003 (ip), vehicle: saline with Tween-80 101 % of control

COC(=O)c1ccccc1NC(=S)NC(=O)COc1ccccc1
inactive: [1] 97 % of control | [2] 95 % of control | [3] 98 % of control

COc1cc(OC)c(NC(=O)OCCOc2ccc(Br)cc2)cc1Cl
inactive: [4] 90 % of control | [1] 90 % of control | [2] 97 % of control

NP(=O)(OCCC(=O)OCc1ccccc1)N(CCCl)CCCl (centres undefined)
inactive: endpoint: mean survival time, dose: 25.0 mg/kg/injection, schedule: Q01DX009 (ip), vehicle: Klucel (hydroxypropylcellulose) (HPC) 97 % of control | endpoint: mean survival time, dose: 50.0 mg/kg/injection, schedule: Q01DX009 (ip), vehicle: Klucel (hydroxypropylcellulose) (HPC) 92 % of control | endpoint: mean survival time, dose: 100.0 mg/kg/injection, schedule: Q01DX009 (ip), vehicle: Klucel (hydroxypropylcellulose) (HPC) 91 % of control | endpoint: mean survival time, dose: 125.0 mg/kg/injection, schedule: Q01DX001 (ip), vehicle: Klucel (hydroxypropylcellulose) (HPC) 95 % of control | endpoint: mean survival time, dose: 200.0 mg/kg/injection, schedule: Q01DX009 (ip), vehicle: Klucel (hydroxypropylcellulose) (HPC) 94 % of control | endpoint: mean survival time, dose: 250.0 mg/kg/injection, schedule: Q01DX001 (ip), vehicle: Klucel (hydroxypropylcellulose) (HPC) 93 % of control | endpoint: mean survival time, dose: 400.0 mg/kg/injection, schedule: Q01DX009 (ip), vehicle: Klucel (hydroxypropylcellulose) (HPC) 97 % of control | endpoint: mean survival time, dose: 500.0 mg/kg/injection, schedule: Q01DX001 (ip), vehicle: Klucel (hydroxypropylcellulose) (HPC) 98 % of control | endpoint: mean survival time, dose: 1000.0 mg/kg/injection, schedule: Q01DX001 (ip), vehicle: Klucel (hydroxypropylcellulose) (HPC) 95 % of control

O=C(O)CCc1ccccc1CC(=O)O
inactive: [5] 98 % of control | [6] 98 % of control | [7] 97 % of control

COc1c(/C=C/CO)cc2c(c1OC)OCO2
inactive: [5] 95 % of control | [6] 102 % of control | [7] 102 % of control

N#Cc1c(Cl)cc(C2(OC(=O)c3ccc([N+](=O)[O-])cc3)C3C=CC2CC3)cc1Cl (centres undefined)
inactive: endpoint: median survival time, dose: 25.0 mg/kg/injection, schedule: Q04DX002 (ip), vehicle: saline with Tween-80 100 % of control | endpoint: median survival time, dose: 50.0 mg/kg/injection, schedule: Q04DX002 (ip), vehicle: saline with Tween-80 87 % of control | endpoint: median survival time, dose: 100.0 mg/kg/injection, schedule: Q04DX002 (ip), vehicle: saline with Tween-80 100 % of control | endpoint: median survival time, dose: 200.0 mg/kg/injection, schedule: Q04DX002 (ip), vehicle: saline with Tween-80 100 % of control

Cc1ccc(S(=O)(=O)[n+]2ccccc2)cc1
inactive: endpoint: mean survival time, dose: 100.0 mg/kg/injection, schedule: Q04DX003 (ip), vehicle: saline 97 % of control | endpoint: mean survival time, dose: 200.0 mg/kg/injection, schedule: Q04DX003 (ip), vehicle: saline 103 % of control | endpoint: mean survival time, dose: 400.0 mg/kg/injection, schedule: Q04DX003 (ip), vehicle: saline 95 % of control

OCCN(CCO)N=Nc1c(F)cc(F)cc1F
inactive: endpoint: mean survival time, dose: 25.0 mg/kg/injection, schedule: Q01DX005 (ip), vehicle: other 98 % of control | endpoint: mean survival time, dose: 25.0 mg/kg/injection, schedule: Q04DX003 (ip), vehicle: water 94 % of control | endpoint: mean survival time, dose: 50.0 mg/kg/injection, schedule: Q01DX005 (ip), vehicle: other 101 % of control | endpoint: mean survival time, dose: 50.0 mg/kg/injection, schedule: Q04DX003 (ip), vehicle: water 94 % of control | endpoint: mean survival time, dose: 100.0 mg/kg/injection, schedule: Q01DX005 (ip), vehicle: other 101 % of control | endpoint: mean survival time, dose: 100.0 mg/kg/injection, schedule: Q04DX003 (ip), vehicle: water 97 % of control | endpoint: mean survival time, dose: 200.0 mg/kg/injection, schedule: Q01DX005 (ip), vehicle: other 102 % of control | endpoint: mean survival time, dose: 200.0 mg/kg/injection, schedule: Q04DX003 (ip), vehicle: water 97 % of control | endpoint: mean survival time, dose: 400.0 mg/kg/injection, schedule: Q01DX005 (ip), vehicle: other 112 % of control | endpoint: mean survival time, dose: 400.0 mg/kg/injection, schedule: Q04DX003 (ip), vehicle: water 100 % of control

CCCCCC1SC1CC1SC1CCCCCCCC(=O)N(CCCC)CCCC (centres undefined)
inactive: endpoint: mean survival time, dose: 75.0 mg/kg/injection, schedule: Q04DX003 (ip), vehicle: saline 98 % of control | endpoint: mean survival time, dose: 150.0 mg/kg/injection, schedule: Q04DX003 (ip), vehicle: saline 107 % of control | endpoint: mean survival time, dose: 300.0 mg/kg/injection, schedule: Q04DX003 (ip), vehicle: saline 97 % of control

NN1C(=O)c2c(Cl)c(Cl)c(Cl)c(Cl)c2C1=O
inactive: [1] 97 % of control | [5] 95 % of control | [2] 98 % of control | [6] 97 % of control | [3] 93 % of control | [7] 92 % of control

Oc1ccc(Br)cc1/C=N/c1nc(-c2ccccc2)cs1.Oc1ccc(Br)cc1/C=N/c1nc(-c2ccccc2)cs1.[Co]
inactive: [8] 100 % of control | [9] 89 % of control

CC12CCC(O)CC1CCC1C2CCC2(C)C(C3COC(=O)C3)CCC12 (centres undefined)
inactive: endpoint: mean survival time, dose: 50.0 mg/kg/injection, schedule: Q01DX001 (ip), vehicle: saline 98 % of control | [8] 98 % of control | [9] 96 % of control

c1coc(NC2CCCCC2)n1
inactive: endpoint: mean survival time, dose: 100.0 mg/kg/injection, schedule: Q01DX001 (ip), vehicle: saline with Tween-80 102 % of control | endpoint: mean survival time, dose: 200.0 mg/kg/injection, schedule: Q01DX001 (ip), vehicle: saline with Tween-80 102 % of control | endpoint: mean survival time, dose: 400.0 mg/kg/injection, schedule: Q01DX001 (ip), vehicle: saline with Tween-80 102 % of control

Cc1ccc(S(=O)(=O)NC(=O)NCCC(C)C)cc1
inactive: endpoint: mean survival time, dose: 100.0 mg/kg/injection, schedule: Q01DX009 (ip), vehicle: saline sonified 104 % of control | endpoint: mean survival time, dose: 200.0 mg/kg/injection, schedule: Q01DX009 (ip), vehicle: saline sonified 97 % of control | endpoint: mean survival time, dose: 400.0 mg/kg/injection, schedule: Q01DX009 (ip), vehicle: saline sonified 98 % of control

NC(=O)/C=C/C(=O)NC(=O)Cc1ccccc1
inactive: endpoint: mean survival time, dose: 3.0 mg/kg/injection, schedule: Q01DX009 (ip), vehicle: saline with Tween-80 97 % of control | endpoint: mean survival time, dose: 6.0 mg/kg/injection, schedule: Q01DX009 (ip), vehicle: saline with Tween-80 98 % of control | endpoint: mean survival time, dose: 12.0 mg/kg/injection, schedule: Q01DX009 (ip), vehicle: saline with Tween-80 92 % of control

CC(CCl)C(C#N)(c1ccccc1)c1ccccc1 (centres undefined)
inactive: [4] 92 % of control | [1] 95 % of control | [5] 101 % of control | [2] 95 % of control | [6] 101 % of control
